In experiment [1] the test system is Botrytis cinerea. Kind of experiment: Activity against the gray mold pathogen Botrytis cinerea in the microtiter test. The conditions noted are these: 168 h, single active compound, day 7, read-out: Observed activity (%); for inhibition at 1 ppm: conc. 1 ppm, efficacy in % of untreated control. Format: cell-based.
The subject of experiment [2] is Pyricularia oryzae. Kind of experiment: microbe, parasite or virus in culture. Format: cell-based. The conditions noted are these: for inhibition at 0.25 ppm: Pyricularia oryzae, 168 h, read-out: Observed activity (%).

With `COC(=O)N(OC)c1ccccc1COc1ccn(-c2ccc(Cl)cc2)n1` [II.1, pyraclostrobin], the inhibition at 1 ppm in experiment [1] was determined as 19%.

`Cc1cc(C2CC2)nc(Nc2ccccc2)n1` [II.2, cyprodinil]: the inhibition at 0.063 ppm in experiment [1] (conc. 0.063 ppm) was 72%. Also, the inhibition at 0.25 ppm in experiment [2] amounted to 63%.

On to `O=C(Nc1ccccc1-c1ccc(Cl)cc1)c1cccnc1Cl` [II.3, boscalid], for which the inhibition at 1 ppm in experiment [1] is 58%.

Regarding `CC(C1CC1)C(O)(Cn1cncn1)c1ccc(Cl)cc1` (stereo not drawn) [II.4, cyproconazol], in experiment [2], the inhibition at 0.25 ppm was 0%.

As for `Fc1ccc([C@]2(Cn3cncn3)O[C@H]2c2ccccc2Cl)cc1` [II.5, epoxiconazol], the “Observed activity (%)” value in experiment [2] (single active compound, conc. 0.25 ppm, day 7) worked out at 4%.

For the origin of these results see patent publication US20100093738A1, “Fungicidal Compounds and Fungicidal Compositions” (BASF SE, priority 2006, published 2010).
